Data reported in ChEMBL document CHEMBL1127403, “L-N6-(1-iminoethyl)lysine: a selective inhibitor of inducible nitric oxide synthase” (J Med Chem, 1994).
pIC50: −log10 of the molar value.

How the values were obtained:
Nitric oxide synthase 1 = Nitric oxide synthase 1 (Rattus norvegicus, UniProt P29476); experiment: Tested for inhibition of rat brain […] nitric oxide synthase
[1] = target: T1, Nitric oxide synthase, inducible (Mus musculus, UniProt P29477); experiment: Tested for inhibition of mouse inducible nitric oxide synthase
T1 sequence (P29477 whole entry): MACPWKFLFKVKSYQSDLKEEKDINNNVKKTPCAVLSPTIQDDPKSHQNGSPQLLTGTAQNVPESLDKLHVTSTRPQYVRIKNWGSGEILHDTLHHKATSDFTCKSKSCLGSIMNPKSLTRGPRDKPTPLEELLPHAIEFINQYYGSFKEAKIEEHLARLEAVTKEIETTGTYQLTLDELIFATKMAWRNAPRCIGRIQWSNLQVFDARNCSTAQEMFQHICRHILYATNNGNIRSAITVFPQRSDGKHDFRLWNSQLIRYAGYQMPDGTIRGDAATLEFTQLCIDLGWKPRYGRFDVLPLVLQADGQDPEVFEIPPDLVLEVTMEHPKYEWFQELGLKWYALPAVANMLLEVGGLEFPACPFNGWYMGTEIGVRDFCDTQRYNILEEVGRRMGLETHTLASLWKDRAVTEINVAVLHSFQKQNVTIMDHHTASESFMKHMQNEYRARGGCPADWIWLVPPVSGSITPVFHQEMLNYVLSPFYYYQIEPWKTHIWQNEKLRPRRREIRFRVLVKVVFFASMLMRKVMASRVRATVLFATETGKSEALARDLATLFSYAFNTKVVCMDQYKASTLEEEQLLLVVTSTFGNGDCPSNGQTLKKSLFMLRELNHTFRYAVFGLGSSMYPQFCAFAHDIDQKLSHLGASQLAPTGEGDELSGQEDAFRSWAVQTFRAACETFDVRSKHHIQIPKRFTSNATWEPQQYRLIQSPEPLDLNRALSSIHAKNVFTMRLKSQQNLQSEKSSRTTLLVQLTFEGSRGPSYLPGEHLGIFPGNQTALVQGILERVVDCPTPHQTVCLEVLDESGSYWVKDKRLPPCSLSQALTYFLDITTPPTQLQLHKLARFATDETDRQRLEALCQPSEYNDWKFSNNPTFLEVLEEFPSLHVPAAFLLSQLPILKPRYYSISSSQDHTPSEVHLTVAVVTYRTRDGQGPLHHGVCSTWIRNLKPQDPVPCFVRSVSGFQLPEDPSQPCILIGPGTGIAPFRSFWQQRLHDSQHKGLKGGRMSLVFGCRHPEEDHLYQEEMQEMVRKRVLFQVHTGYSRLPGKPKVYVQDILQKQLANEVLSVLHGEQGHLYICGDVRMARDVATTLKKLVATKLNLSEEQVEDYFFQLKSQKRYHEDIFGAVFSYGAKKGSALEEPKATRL

[2] = Selectivity is the ratio of IC50 of mouse inducible NOS and Rat brain constitutive NOS

Chain of Nitric oxide synthase 1 (P29476 whole entry): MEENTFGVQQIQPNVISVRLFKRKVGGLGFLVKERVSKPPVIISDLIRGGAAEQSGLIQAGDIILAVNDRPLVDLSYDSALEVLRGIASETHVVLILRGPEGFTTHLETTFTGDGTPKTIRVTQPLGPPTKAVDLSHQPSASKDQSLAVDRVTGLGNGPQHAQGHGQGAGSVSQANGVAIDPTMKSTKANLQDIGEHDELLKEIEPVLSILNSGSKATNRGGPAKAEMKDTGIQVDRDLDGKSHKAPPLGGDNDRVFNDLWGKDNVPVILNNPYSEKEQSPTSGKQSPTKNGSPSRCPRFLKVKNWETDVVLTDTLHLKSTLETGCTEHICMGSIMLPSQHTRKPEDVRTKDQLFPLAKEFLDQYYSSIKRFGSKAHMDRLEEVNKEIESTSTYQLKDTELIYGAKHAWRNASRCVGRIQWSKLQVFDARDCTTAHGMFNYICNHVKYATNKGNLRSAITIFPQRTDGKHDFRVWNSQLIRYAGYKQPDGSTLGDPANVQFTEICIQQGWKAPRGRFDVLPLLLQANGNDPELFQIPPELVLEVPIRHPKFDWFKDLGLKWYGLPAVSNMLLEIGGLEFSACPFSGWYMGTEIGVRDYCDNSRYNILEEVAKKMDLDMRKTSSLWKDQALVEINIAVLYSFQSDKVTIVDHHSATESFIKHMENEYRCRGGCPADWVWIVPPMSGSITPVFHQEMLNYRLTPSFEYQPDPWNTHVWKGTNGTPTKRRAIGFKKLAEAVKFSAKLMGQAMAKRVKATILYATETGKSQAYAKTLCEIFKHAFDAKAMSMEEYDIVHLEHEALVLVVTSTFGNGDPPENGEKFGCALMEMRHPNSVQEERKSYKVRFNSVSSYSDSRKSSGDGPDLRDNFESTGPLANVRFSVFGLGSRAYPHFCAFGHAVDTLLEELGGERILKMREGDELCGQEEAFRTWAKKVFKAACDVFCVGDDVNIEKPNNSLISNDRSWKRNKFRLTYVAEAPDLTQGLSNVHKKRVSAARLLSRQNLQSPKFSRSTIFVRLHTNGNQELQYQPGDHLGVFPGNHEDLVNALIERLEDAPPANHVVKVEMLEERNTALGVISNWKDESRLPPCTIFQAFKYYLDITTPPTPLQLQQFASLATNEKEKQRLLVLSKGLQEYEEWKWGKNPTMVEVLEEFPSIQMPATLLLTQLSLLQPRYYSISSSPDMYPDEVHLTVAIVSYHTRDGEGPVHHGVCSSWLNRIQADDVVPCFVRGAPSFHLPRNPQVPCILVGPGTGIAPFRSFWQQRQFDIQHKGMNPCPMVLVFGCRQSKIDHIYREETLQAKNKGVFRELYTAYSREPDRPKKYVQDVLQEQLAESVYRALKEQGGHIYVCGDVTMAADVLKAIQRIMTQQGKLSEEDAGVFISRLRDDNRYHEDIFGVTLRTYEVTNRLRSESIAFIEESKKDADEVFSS

pIC50 (Nitric oxide synthase 1)	pIC50 [1]	Selectivity [2]	Compound
2.55	3.47	8	CC(=N)NCCCC[C@@H](N)C(=O)O
3.09	4.14	11	CC(=N)NCCCCCC(N)C(=O)O (racemic)
4.04	5.48	28	CC(=N)NCCCC[C@H](N)C(=O)O [L-NIL]
	5.41		CC(=N)NCCC[C@H](N)C(=O)O [L-NIO]

Compound	pIC50 (Nitric oxide synthase 1)	pIC50 [1]	Selectivity [2]
N=C(NCCC[C@H](N)C(=O)O)N[N+](=O)[O-] [NITROARGININE]		6.30	
